# Laboratory results published in patent publication US20220409573A1, “Hippocampus Regeneration And Memory Recovery” (INNOBIOSCIENCE, LLC, priority 2021, published 2022).
# Entries after “also recorded” stand apart in the source; their conditions may differ.
# Tests used:
# [1] = system: Wnt/β-catenin pathway in hippocampal slices; assay: β-catenin, GSK-3β and Dvl-3 western blot in hippocampal slices of wild-type mice; assay type: cell-based
# Method: Slice preparation. […] Transverse slices (250-300 μm) from the dorsal hippocampus were cut under oxygen-saturated cold artificial cerebrospinal fluid using a Vibroslice microtome (VSL, World Precision Instruments, Inc WPI, Sarasota, Fla.). After obtained, slices were incubated in ACSF for at least than one hour at room temperature, in order to stabilize activity.
# Immunoblotting. […] Briefly, tissues were homogenized in RIPA buffer (10 mM Tris-Cl, pH 7.4, EDTA 5 mM, 1% NP-40, 1% sodium deoxycholate, and 1% SDS) supplemented with a protease inhibitor mixture (1 mM PMSF, 2 μg/mL aprotinin, 1 μg/mL pepstatin and 10 μg/mL benzamidine) and phosphatase inhibitors (25 mMNaF, 100 mM Na3VO4, 1 mM EDTA and 30 μM Na4P207) using a Potter homogenizator and then passed sequentially through different caliber syringes. […] Protein concentration was determined using the BCA Protein Assay Kit (Pierce). […] The reactions were followed by incubation with anti-mouse, anti-goat or anti-rabbit IgG peroxidase conjugated (Pierce, Rockford, Ill.) and developed using an ECL kit (Western Lightning Plus ECL, PerkinElmer).
# [2] = system: synaptic proteins in hippocampus and cortex of APPswe/PS-1 mice; assay: Immunoblotting of synaptic proteins in treated APPswe/PS-1 mice; assay type: in vivo
# [3] = Side effects in treated animals; conditions: in vivo
# [4] = system: Aβ aggregates in brain of APPswe/PS-1 mice; assay: Thioflavine-S staining of amyloid plaques in treated APPswe/PS-1 mice; assay type: in vivo
# GSK-3β = assay: Immunoblot of GSK-3β phosphorylation and β-catenin in Wt hippocampal slices; assay type: cell-based, mice
# Method: Immunoblotting. The hippocampus and cortex of treated or control transgenic mice were dissected on ice and immediately processed has detailed previously (Toledo & Inestrosa 2010). Briefly, hippocampal and cortical tissues were homogenized in RIPA buffer (10 mM Tris-Cl, pH 7.4, EDTA 5 mM, 1% NP-40, 1% sodium deoxycholate, and 1% SDS) supplemented with a protease inhibitor mixture and phosphatase inhibitors (25 mMNaF, […] and 30 μM Na4P207) using a Potter homogenizator and then passed sequentially through different caliber syringes. Protein samples were centrifuged at 14000 rpm at 4° C. twice for 15 min. Protein concentrations were determined using the BCA Protein Assay Kit (Pierce). Samples were resolved by SDS-PAGE followed by immunoblotting on PVDF membranes. Western blot assays were carried out as previously described (Inestrosa et al 2013; Toledo & Inestrosa 2010).
# Slice Preparation and Electrophysiology. Hippocampal slices were prepared according to standard procedures previously described (Cerpa et al 2010; VarelaNallar et al 2010). Briefly, transverse slices (350 μm) from the dorsal hippocampus were cut under cold artificial cerebrospinal fluid (ACSF, in mM: 124 NaCl, […], 10 D-glucose, 2.69 KCl, 1.25 KH2PO4 2.5 CaCl2, 1.3 MgSO4, y 2.60 NaHPO4) using a V ibratome (Leica VT 1000s, Germany) and incubated in ACSF for 1 h at room temperature. In all experiments, 10 μM picrotoxin (PTX) was added to suppress inhibitory GABAA transmission (Cuitino et al 2010). Slices were transferred to an experimental chamber (2 ml), superfused (3 ml/min, at 20-22° C.) with gassed ACSF and visualized by trans-illumination with a binocular microscope (MSZ-10, Nikon, Melville, N.Y.). […] The paired pulse facilitation index was calculated by ((R2−R1)/R1), where R1 and R2 were the peak amplitudes of the first and second fEPSP respectively. […] Evoked postsynaptic responses were analyzed off-line, using an analysis software (pClampfit, Molecular Devices), which allowed visual detection of events, computing only those events that exceeded and arbitrary threshold.
# [5] = system: APPswe/PS-1 double transgenic mice; assay: Memory flexibility test (modified Morris Water Maze); assay type: in vivo; conditions: 7-month-old APPswe/PS-1 mice, 2.0 mg/kg IP three times per week, four weeks, vs Tg control
# [6] = system: CA3-CA1 transmission in the hippocampus of APPswe/PS-1 mice; assay: LTP by TBS in hippocampal CA1 slices from treated APPswe/PS-1 mice; assay type: in vivo; conditions: slices from the two sets (7- and 12-month-old) of treated APPswe/PS-1 mice
# Wnt target genes = assay: PCR array of Wnt target genes in hippocampal neurons; assay type: cell-based, rat
# Method: Primary culture of rat hippocampal neurons. […] PCR-ARRAY. RNA from hippocampal neurons was extracted using Trizol. Quantification and purity of RNA preparations were checked by absorbance using Nanodrop ND-2000. Only preparations with a 260/280 nm ratio≥1.8, a 260/230 nm ratio ≥1,7 and no sign of RNA degradations, verified by agarose gel electrophoresis with Gel Red TM were used. Genomic DNA was degraded. Using RT2First-Strand cDNA Synthesis kit (SuperArray), 1 μg total RNA was reverse transcribed and then real-time PCR was performed by adding cDNA directly to PCR Master Mix, containing SYBR Green and ROX. The mixtures were then aliquoted into a 96-well PCR array plates, which profiles the expression of 84 Wnt target genes from rat. The PCR was run on ABI StepOnePlus, with 1 cycle of 10 min at 95° C. followed by 40 cycles of 15 s at 95° C. and 1 min at 60° C.
# Treatment of neuronal cultures. Primary hippocampal cultures of neurons 14 DIV were washed twice in neurobasal medium and maintained for 1 hour.
# [7] = young APPswe/PS-1 mice, vs controls
# [8] = Wt hippocampal slices, 10 μM ANDRO for 1 hr
# [9] = 9 h treatment, of the 86 genes analyzed
smiles,measurement,setting,value
"C=C1CC[C@@H]2C(C)(CO)[C@H](O)CC[C@@]2(C)C1C/C=C1/C(=O)OC[C@H]1O (stereo in doubt) [ANDRO, 3-(2-(Decahydro-6-hydroxy-5-(hydroxymethyl)-5,8a-dimethyl-2-methylenenaphthyl)ethylidene)dihydro-4-hydroxyfuran-2(3H)-one]",time at which total levels of β-catenin increased,"[1]; 5 μM ANDRO, Wnt3a conditioned medium or 10 nM 6-BIO, up to 1 h",15 min
same,rate of increase of GSK3β Ser-9 and decrease of Tyr-216 phosphorylation,[1]; compared to Wnt-3a treatment,faster
same,mobility shift (phosphorylation) of Dvl-3,"[1]; hippocampal slices, 1 h",does not induce a mobility shift of Dvl-3
same,PSD-95 and GluA2 levels,[2]; mature (12-month-old) Tg mice,increase of PSD-95 and GluA2 levels
same,total levels of pre-synaptic proteins SYP and VAMP,[2]; young APPswe/PS-1 mice,unaltered
same,"levels of post-synaptic proteins (Shank, GluN2B, GluA2, PSD-95)","[2]; young APPswe/PS-1 mice, hippocampus and cortex",significantly recovers the post-synaptic proteins
same,side effects in animals,[3],seems not to cause side effects in animals
same,plaque size distribution (cumulative frequency),[4]; 7 month-old APPswe/PS-1 mice,shift in their distribution toward smaller plaque size
same,amyloid plaques stained with Th-S,"[4]; 7 month-old APPswe/PS-1 mice, cortex and hippocampus, vs untreated",reduction of amyloid plaques
same,amyloid deposit levels (amyloid burden area),"[4]; hippocampus or cortex, FIG. 3F (12 month-old mice per legend)",no change in amyloid deposit levels
same,immature plaques (type 1),[4]; [7],increase significantly
same,type 2a and 2c plaques in the total brain,[4]; [7],no significant differences
same,type 2b plaques,[4]; [7],significantly decreased
same,levels of β-catenin,GSK-3β; Wt hippocampal slices incubated with ANDRO,increase in the levels of β-catenin
same,active form of GSK-3β (Tyr-216 phosphorylation),GSK-3β; [8],decrease of Tyr-216 phosphorylation; also recorded: reduction of the active form
same,inactive form of GSK-3β (Ser-9 phosphorylation),GSK-3β; [8],increment of Ser-9 phosphorylation; also recorded: increase in the levels of the inactive form
same,number of trial to criterion of learning,[5],reduction in the number of trial to criterion of learning
same,LTP induction,[6],recovery in the capacity to induce a LTP; also recorded: have the property to induce a LTP that is maintained for 1 h
same,Cdh-1 gene expression,Wnt target genes,differential expression
same,number of Wnt target genes specifically modulated,Wnt target genes; [9],3 genes
same,number of changed Wnt target genes shared by ANDRO and 6-BIO,Wnt target genes; [9],4 genes
same,Ets2 gene expression,Wnt target genes; after Bonferroni correction,down-regulation of Ets2 gene
